Test results: PubChem BioAssay AID504664 (Sanford-Burnham Center for Chemical Genomics, 2011)
The source made the active and inactive calls.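 How the source made its calls: active means IC50 mean at or below 20 µM; inactive means the rest.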

What follows are molecules tested on 697 NF-kB-Luc cells, PMA/ionomycin, luciferase luminescence, 16 h (assay: NF-kB reporter inhibition in 697 B cells, SAR follow-up, T-cell antigen receptor NF-kB inhibitors, cell-based, luminescence, set 2 (AID 504664)).

IC50, inactive:
Cc1ccc(NC(=O)c2ccc([N+](=O)[O-])o2)cc1C(F)(F)F > 79 µM
CCCCC(=O)NC(c1ccc(Cl)cc1Cl)c1ccc2cccnc2c1O (stereo not given) > 79 µM
CC(=O)NC(c1ccc(C(C)C)cc1)c1ccc2cccnc2c1O (stereo not given) > 79 µM
Cc1cc(C)cc(NC(=O)c2ccc([N+](=O)[O-])o2)c1 31.9 µM
COc1cc(NC(=O)c2ccc3c(c2)OCO3)ccc1NC(=O)c1cc2ccccc2o1 > 79 µM
CCOc1ccc(-c2nc(CS(=O)(=O)CC(=O)NCc3ccc(F)cc3)c(C)o2)cc1 > 79 µM
CNC(=O)CCc1nc(-c2ccccc2)no1 > 79 µM
N#Cc1cccc(NC(=O)c2ccc([N+](=O)[O-])o2)c1 > 79 µM
Cc1cccc(NC(=O)c2ccc([N+](=O)[O-])o2)c1C > 79 µM
COc1ccc(C(NC(=O)CCc2ccccc2)c2ccc3cccnc3c2O)cc1 (stereo not given) > 79 µM
Cc1ccc(NC(=O)c2ccc([N+](=O)[O-])o2)cc1C > 79 µM
COc1ccc(C(=O)Nc2ccc(NC(=O)c3cc4ccccc4o3)cc2)cc1[N+](=O)[O-] > 79 µM
Cc1cc(-c2nc3ncccc3o2)ccc1NC(=O)c1ccc([N+](=O)[O-])o1 > 79 µM
CC(C)c1ccc(C(NC(=O)C2CCCCC2)c2ccc3cccnc3c2O)cc1 (stereo not given) > 79 µM
CCCCC(=O)NC(c1ccc(OC)cc1)c1ccc2cccnc2c1O (stereo not given) > 79 µM
CCCC(=O)NC(c1ccccc1OC)c1ccc2cccnc2c1O (stereo not given) > 79 µM
COc1ccc(C(=O)Nc2ccc(NC(=O)c3cc4ccccc4o3)cc2)cc1Br > 79 µM
CCCC(=O)NC(c1ccc(OC)cc1)c1ccc2cccnc2c1O (stereo not given) > 79 µM
COc1ccc(C(NC(=O)CC(C)C)c2ccc3cccnc3c2O)cc1OC (stereo not given) > 79 µM
Cc1ccc2nsnc2c1NC(=O)c1ccc([N+](=O)[O-])o1 > 79 µM
CC(C)c1ccc(C(NC(=O)C2CCCCC2)c2cc([N+](=O)[O-])c3cccnc3c2O)cc1 (stereo not given) > 79 µM
CC(C)CC(=O)NC(c1ccc(C(C)C)cc1)c1ccc2cccnc2c1O (stereo not given) > 79 µM
Cc1ccc(C)c(NC(=O)c2ccc([N+](=O)[O-])o2)c1 > 79 µM
CCCC(=O)NC(c1ccc(Cl)cc1)c1ccc2cccnc2c1O (stereo not given) > 79 µM
CCOc1ccc(NC(=O)c2ccc([N+](=O)[O-])o2)cc1 > 79 µM
CCCCC(=O)NC(c1ccc(Cl)cc1)c1ccc2cccnc2c1O (stereo not given) > 79 µM
O=C(Nc1ccc2oc(-c3cccnc3)nc2c1)c1ccc([N+](=O)[O-])o1 > 79 µM
CCCCC(=O)NC(c1ccc(N(C)C)cc1)c1ccc2cccnc2c1O (stereo not given) > 79 µM
CCC(=O)NC(c1ccc(N(C)C)cc1)c1ccc2cccnc2c1O (stereo not given) > 79 µM
CN1CCN(c2ccccc2NC(=O)c2ccc([N+](=O)[O-])o2)CC1 > 79 µM
CCCC(=O)NC(c1ccccc1)c1ccc2cccnc2c1O (stereo not given) > 79 µM
Cc1ccc(C(NC(=O)C(C)C)c2ccc3cccnc3c2O)cc1 (stereo not given) > 79 µM
CC(C)CC(=O)NC(c1ccccc1)c1ccc2cccnc2c1O (stereo not given) > 79 µM
CCCCC(=O)NC(c1ccccc1)c1ccc2cccnc2c1O (stereo not given) > 79 µM
COc1ccc(C(NC(=O)Cc2ccccc2)c2ccc3cccnc3c2O)cc1OC (stereo not given) > 79 µM
CCCC(=O)NC(c1ccc(C)cc1)c1ccc2cccnc2c1O (stereo not given) > 79 µM
CC(=O)N1CCN(c2ccc(NC(=O)c3ccc([N+](=O)[O-])o3)cc2Cl)CC1 62.3 µM
CCCCC(=O)NC(c1ccc(N(CC)CC)cc1)c1ccc2cccnc2c1O (stereo not given) > 79 µM
CCCCC(=O)NC(c1ccc(C(C)C)cc1)c1ccc2cccnc2c1O (stereo not given) > 79 µM
O=C(Nc1ccc(-c2nc3ncccc3o2)cc1)c1ccc([N+](=O)[O-])o1 > 79 µM
Cc1cc(NC(=O)c2ccc([N+](=O)[O-])o2)cc(-c2nc3ccccc3o2)c1O > 79 µM
Cc1ccc(C(NC(=O)C2CCCCC2)c2ccc3cccnc3c2O)cc1 (stereo not given) > 79 µM
COc1ccccc1C(NC(C)=O)c1ccc2cccnc2c1O (stereo not given) > 79 µM
CCCC(=O)NC(c1ccc(C(C)C)cc1)c1ccc2cccnc2c1O (stereo not given) > 79 µM
COc1ccc(C(NC(=O)C(C)C)c2ccc3cccnc3c2O)cc1 (stereo not given) > 79 µM
CCN(CC)C(=O)CCc1nc(-c2ccc(C(C)(C)C)cc2)no1 60.1 µM
COc1ccc(C(=O)Nc2ccc(NC(=O)c3cc4ccccc4o3)cc2)cc1OC > 79 µM
Cc1cc(NC(=O)c2ccc([N+](=O)[O-])o2)ccc1NC(=O)c1ccco1 > 79 µM
CCC(=O)NC(c1ccc(C)cc1)c1ccc2cccnc2c1O (stereo not given) > 79 µM
CCN1CCN(c2c(Cl)cccc2NC(=O)c2ccc([N+](=O)[O-])o2)CC1 43.7 µM
CC(=O)N1CCc2cc(NC(=O)c3ccc([N+](=O)[O-])o3)ccc21 > 79 µM
CCOc1ccc(C(=O)Nc2ccc(NC(=O)c3cc4ccccc4o3)cc2)cc1[N+](=O)[O-] > 79 µM
O=C(Nc1ccc(N2CCCC2)c(Cl)c1)c1ccc([N+](=O)[O-])o1 61.7 µM
CCCC(=O)NC(c1ccccc1Cl)c1ccc2cccnc2c1O (stereo not given) > 79 µM
COc1ccc(C(=O)Nc2ccc(NC(=O)c3cc4ccccc4o3)cc2)cc1Cl > 79 µM
COc1ccc(C)cc1NC(=O)c1ccc([N+](=O)[O-])o1 > 79 µM
CCCCC(=O)NC(c1ccc(C)cc1)c1ccc2cccnc2c1O (stereo not given) > 79 µM
O=C(Nc1ccc2c(c1)CCO2)c1ccc([N+](=O)[O-])o1 > 79 µM
NS(=O)(=O)c1ccc(NC(=O)c2ccc([N+](=O)[O-])o2)cc1 58.9 µM
CC(=O)NC(c1ccc2ccccc2c1)c1ccc2cccnc2c1O (stereo not given) > 79 µM
COc1cc(-c2nc3n(n2)C(c2ccc(F)cc2)C2=C(CCCC2=O)N3)cc(OC)c1OC (stereo not given) 29 µM
O=C(Nc1cccc2ncccc12)c1ccc([N+](=O)[O-])o1 > 79 µM
CCCOc1ccc(C(=O)Nc2ccc(NC(=O)c3cc4ccccc4o3)cc2)cc1 > 79 µM
O=C(Nc1ccc2oc(-c3ccncc3)nc2c1)c1ccc([N+](=O)[O-])o1 > 79 µM

IC50, active:
COc1cc2nc(NC(=O)c3ccccc3)sc(=O)c2cc1OC 0.86 µM
CCCCNC(=O)CCc1nc(-c2ccc(C(C)(C)C)cc2)no1 14.6 µM
CC(C)(C)c1ccc(-c2noc(CCC(N)=O)n2)cc1 0.55 µM
CC(C)(C)NC(=O)CCc1nc(-c2ccc(C(C)(C)C)cc2)no1 2.5 µM
CCNC(=O)CCc1nc(-c2ccc(C(C)(C)C)cc2)no1 < 0.16 µM
CNC(=O)CCc1nc(-c2ccc(C(C)(C)C)cc2)no1 0.03 µM
CN(C)C(=O)CCc1nc(-c2ccc(C(C)(C)C)cc2)no1 6.56 µM
Cc1cc(NC(=O)c2ccc3c(c2)OCCO3)ccc1NC(=O)c1cc2ccccc2o1 12.9 µM
CCOc1ccc(-c2nc(CSCC(=O)NC3CC3)c(C)o2)cc1 0.21 µM
O=C(Nc1nc2c(Br)cc(Br)cc2c(=O)s1)c1ccco1 4.57 µM
CCOc1ccc(-c2nc(CSCC(=O)NCc3ccco3)c(C)o2)cc1 0.29 µM
